Experimental data published in patent publication US20100292186A1, “Pharmaceutical Composition for Treatment or Prevention of Liver Cancer” (National University Corporation Nagoya University, priority 2006, published 2010).

How the values were obtained:
[1] = system: human hepatocellular cancer cell lines (Hep-3B, Hep-G2, Huh-7 and the like); details: literature; cited from earlier work
[2] = cited from earlier work
[3] = system: hepatocellular cancer; details: administration after treatment of hepatocellular cancer; cited from earlier work
[4] = system: human hepatocellular cancer cell line (Hep-3B, Hep-G2, Huh-7 and Alexander); test: MTT assay, growth inhibition of hepatocellular cancer cell lines; format: cell-based
Method: Four species of human hepatocellular cancer cell line (Hep-3B. Hep-G2, Huh-7 and Alexander) were cultured under humidified atmosphere of 95% air and 5% carbon dioxide, in a Dulbecco Modified Eagle culture medium (DMEM: SIGMA CHEMICAL Co., St. Louis USA) supplemented with 10% fetal bovine serum (FBS), 100 U/ml penicillin G sulphate and 100 μg/ml streptomycin sulphate.
For lecithin (other name: phosphatidylcholine (hereinafter, referred to as simply “PC”), soybean lecithin with a purity of approximately 96.5% was used, and menatetrenone and Kaytwo N (Kaytwo N: registered trade mark; manufactured by Eisai Co. Ltd.) were provided by Eisai Co. Ltd. For the study, cells (Hep-G2: 1×10^4; others: 1×10^3) in a 96-well microtiter plate were cultured one day prior to beginning the experiments. In the MTT assay method, cells in 96-well microtiter were cultured several days (2 to 4 days) in the presence of PC (1×10^−8 to 1×10^−4M) and menatetrenone (1×10^−7 to 1×10^−4 M) or Kaytwo N (registered trade mark; manufactured by Eisai Co. Ltd.) (regarding menatetrenone: […] to 1×10^−4M). […] The survival rate was analyzed by the MTT assay method using the Tetra Color One Kit. […]
Significant differences were evaluated by the Mann-Whitney U test according to StatView 5.0 (Abacus Concepts, Berkley, Calif.). […]

Q: For CC(C)=CCC/C(C)=C/CC/C(C)=C/CC/C(C)=C/CC1=C(C)C(=O)c2ccccc2C1=O [menatetrenone, 2-methyl-3-tetraprenyl-1,4-naphthoquinone], which “growth of human hepatocellular cancer cell lines” value [1] is on record?
A: inhibitory effect

Q: And the solubility in water [2]?
A: almost insoluble in water

Q: What about the “occurrence of PVI (portal venous invasion)” value [3] of the same compound?
A: could be suppressed

Q: And the “prognosis / recurrence of hepatocellular cancer” value [3]?
A: prognosis could be improved by suppressing the recurrence of hepatocellular cancer

Q: And the survival rate ([4]; MTT assay, PC 1×10^−8 to 1×10^−4 M, menatetrenone 1×10^−7 to 1×10^−4 M, culture 2 to 4 days, FIGS. 1A-1C)?
A: survival rate decreased in the presence menatetrenone depending on the quantity added

Q: What about the “multiplication of human hepatocellular cancer cell lines” value ([4]; each substance alone) of the same compound?
A: demonstrated an inhibitory effect
